Results on six molecules are retold here after US20100204328A1, “Solution and Method to Reduce, Treat and/or Prevent Oxidative Stress and Cell Activation” (priority 2006, published 2010).

The test system of data set [1] is Interleukin 6. The experiment in a line: IL-6 expression in LPS-incubated whole blood by flow cytometry. The data set is classed as cell-based. The settings on record: whole blood with LPS, substance added directly or after 2 hrs, measured after 4 hrs; for expression of IL6: FIG. 21. An excerpt:
Further we analyzed intracellular IL-6 concentrations—indicator of proinflammatory cell activation—by flow cytometry and by this we were also able to analyze the percentage of […]/activated cells, see FIG. 20. Shown are the results for intracellular IL-6. Further data were generated to show: • (1) That use of LPS as primary stimulus instead of PMA (i.e. other cell activation pathway) is inducing similar activation pattern. LPS could stand for a septic/bacterial infection environment instead of a pro-oxidative environment. • (2) That additional and more complete interventions in the pathophysiological sequence through scavengers reduces also the expression of cellular surface markers like CD11b (an indicator of enhanced adhesion to vascular walls).
Whole blood was incubated with LPS; ethyl pyruvate and N-acetyl-cysteine, respectively were added directly or after 2 hrs. Expression of Interleukin 6 was measured after 4 hrs with flow cytometer, see FIG. 21.
(Flow cytometry measures light scatter and fluorescence of single cells or particles in a stream.)

Data set [2] relates to WBC. Put plainly: Reduction of ROS during perfusion through hollow fiber minimodule. The data set is classed as cell-based, human. The note with it: scavenger added to dialysis fluid, counter current, single pass, FIG. 19. On the procedure:
WBC were isolated from human blood donation. Cells were stimulated by PMA and after one hour incubation a fluorescence dye (H2DCF-DA) was added to the cells and incubated for another 25 mins. The cell suspension was pumped single pass through a hollow fiber minimodule. On the dialysate pathway dialysis fluid with or without radical scavenger was pumped in counter current. Fluorescence was measured at the dialyzer inlet and outlet and fluorescence reduction in the filter was calculated. Negative control: PBS-buffer without radical scavenger as dialysis fluid, see FIG. 19.

For data set [3] the following is noted: cited from earlier work.
Data set [4] concerns ROS. The experiment in a line: ROS-inhibition with pre-incubation versus post-incubation (pre-stimulation) of cells. It counts as cell-based. The note with it: single substances, FIGS. 31 to 34. On the procedure:
Therefore, the ROS-inhibition was tested in two different applications:
1. Pre-incubation (activation of cells after incubation with a substance or combination of substances according to the invention)
2. Post-incubation (addition of a substance or a combination of substances according to the invention after cell activation)
All substances or combinations thereof were tested in the same concentration ranges as in the screening of the combinations as described before.

Data set [5] deals with isolated Leukocytes. The experiment in a line: Design-of-experiments screening of antioxidants: intracellular free radical formation in PMA-stimulated isolated leukocytes (96-well plate, fluorescence kinetics). It counts as cell-based, human. The settings on record: model, other substances on a medium level, FIG. 9. On the procedure:
An often discussed therapeutic intervention is the addition of substances with antioxidative properties to balance the oxidative/antioxidative system. In our work we performed a systematic screening of such antioxidants, see FIG. 2. The screening was done in a 96-well-plate setup where isolated Leukocytes from healthy donors were pre-incubated with antioxidants for 1 hour. The chosen substances were N-acetyl-cysteine (NAC), gluconic acid (GA), glutathione (GSH) and vitamin […] fluorescence dye was added as a marker for intracellular free radical formation. Afterwards the cells were stimulated by phorbol-myristate-acetate (PMA) and free radical formation was recorded as fluorescence signal over time. The dye in this assay is membrane-permeable and non-fluorescent when it is added. Diffusing once into the cell, enzymes convert it to a readily oxidizable fluorescence dye and the intracellular formation of free radicals can be measured. In order to perform a systematic screening of these substances we would have had to carry out a lot of experiments. Due to the lack of blood donors we chose the methodology of design of experiments, see FIG. 3. Here an experimental plan is generated on statistical basis and a mathematical model can be established. In our case we chose a Centrum Composite Circumscribed-Design (CCC), which is a combination of a full-factorial and a Central Composite-Design (CCD) with a center point. Every single experiment was carried out three times. Besides saving many experiments an additional advantage is the consideration of interactions and quadratic influences. The software tool Mode generates the experimental plan where the combinations of the substances vary according to the chosen CCC-Design, see FIG. 4. Out of the measured fluorescence kinetics a free-radical-inhibition-ratio was calculated and implemented. A ratio of 1 relates to 100% inhibition of free radical formation. The obtained data was fitted by multiple linear regression analysis, see FIG. 5. The influence of single substances, its quadratic terms and interactions between the substances are considered in the shown equation. The quality of the model fit is defined in the summary plot. R^2 stands for regression, Q^2 for prediction quality, MV for model validity and Rep for reproducibility. […] The model has to be further optimised. To identify a model-weakness a closer look into the model is required.

Data set [6] deals with CD11b. The experiment in a line: CD11b expression of granulocytes in LPS-incubated whole blood by flow cytometry. It counts as cell-based. The settings on record: LPS 10/100 U/ml 45 minutes, then substance 4 hrs, FIG. 22. The procedure:
Whole blood was incubated with LPS (10/100 U/ml) for 45 minutes. Ethyl pyruvate, N-acetyl-cysteine and gluconate were added to the stimulated system and incubated for 4 hrs. CD11b Expression of granulocytes was measured with flow cytometry, see FIG. 22.

The test system of data set [7] is White blood cells (WBC). The experiment in a line: Inhibition of cell activation/ROS-generation by addition of free radical scavengers (H2DCF-DA fluorescence). The data set is classed as cell-based, human. The note with it: WBC preincubated 30-60 minutes, PMA or LPS stimulus, FIG. 15. The procedure: Other macromolecules with SH sites could also be applied.
White blood cells (WBC) were isolated from freshly donated human whole blood. This was done by collecting whole blood from healthy donors on Heparin anticoagulation. Leukocytes were isolated out of the whole blood with the help of an isolation gradient (Polymorphprep). Isolated Leukocytes were diluted in PBS or RPMI 1640 cell culture media and a concentration of 2×10^6/ml was chosen. The cells were stored at 37° in 5% CO2. The cells were preincubated with the substances at 37° C. for 30-60 minutes. Afterwards the cells were stimulated with 50 ng/ml PMA or 30 EU/ml LPS. For ROS-measurement a fluorescence dye (dichlorodihydrofluorescein-diacetate, H2DCF-DA) was added at 10 μM final concentration. The cells were incubated with the substance, the fluorescence dye and the activator for 2 hrs and the fluorescence intensity kinetics was measured over time. To compare the result between two substances, the fluorescence intensity at a certain time point, e.g. 30 minutes) was recorded. For comparison the fluorescence at a certain time is shown in the diagram in FIG. 15.

For data set [8] the following is noted: FIG. 25; cited from earlier work.
The subject of data set [9] is WBC. Put plainly: Inhibition of cell activation/ROS-generation by free radical scavengers via the membrane. It counts as cell-based, human. The settings on record: low flux membrane, incubation 60 mins, PMA, FIG. 17. On the procedure: WBC were isolated from human blood donation. Cells were separated by a membrane from the second compartment which comprises a buffer-system containing a radical scavenger (incubation time 60 mins). Afterwards a fluorescence dye (H2DCF-DA) was added to the cells and incubated for 25 mins. Finally stimulation of WBCs was performed by PMA and fluorescence was measured over time, see FIG. 17.
Positive control: with stimulus (2nd compartment PBS-buffer),
Negative control: without stimulus (2nd compartment PBS-buffer)

Each structure is given as a SMILES string. Read-outs that look alike come from different tables or passages of the source.

For the molecule `CC(=O)N[C@@H](CS)C(=O)O` [N-acetyl-cysteine], in [1], the “number of IL-6 positive cells” value is “reduce the number of IL-6 positive cells” and the “expression of IL6” value is “reduce the expression of IL6”. Further, the “free radicals on the blood side in the dialyzer and in the intracellular compartment” value in data set [2] was “free radicals are reduced”. Also, the “tolerability of rather high plasma levels” value in data set [3] (application as an antidote in acute situations) was “well tolerated”. Besides, the plasma levels entry in [3] (intravenous application, compared with oral) was “higher plasma levels”. Also, in [3] (oral application), the bioavailability result was “poor bioavailability” and the plasma levels was 3000 to 30000 nM. Moreover, in data set [4], the ROS inhibition was 60-80%. Moreover, in data set [5], the “influence of the concentration of a single substance on the ROS-Inhibition ratio” value (“influence … on the ROS-Inhibition ratio” below) is reported as “quadratic character”. Further, the “expression of CD11b adhesion marker” value in [6] is given as “reduce expression of CD11b adhesion marker”. The free radical formation result in data set [7] is on record as “able to inhibit free radical formation”. In data set [8], the “plasma level at which first beneficial effects could be shown” value is 12 µM.
On to `CC(=O)N[C@H]1C(O)O[C@H](CO)[C@@H](O)[C@@H]1O` (stereo partly drawn) [N-acetyl-glucosamine], for which the free radical formation entry in data set [7] is recorded as “able to inhibit free radical formation”.
Regarding `CCOC(=O)C(C)=O` [ethyl pyruvate], in data set [1], the “number of IL-6 positive cells” value is on record as “reduce the number of IL-6 positive cells” and the “expression of IL6” value was “reduce the expression of IL6”. For the same molecule, the “free radicals on the blood side in the dialyzer and in the intracellular compartment” value in data set [2] was “free radicals are reduced”. Besides, in [6], the “expression of CD11b adhesion marker” value is given as “reduce expression of CD11b adhesion marker”.
For the molecule `O=C(O)[C@H](O)[C@@H](O)[C@H](O)[C@H](O)CO` [gluconic acid], the “free radical formation, scavenger acting through the membrane” value in data set [9] is recorded as “capable to inhibit”. Also, the ROS inhibition in [4] is recorded as 15-30%. Besides, in data set [5], the “influence … on the ROS-Inhibition ratio” value is on record as “quadratic character”. Moreover, in data set [6], the “expression of CD11b adhesion marker” value was “reduce expression of CD11b adhesion marker”. In data set [7], the free radical formation result is given as “able to inhibit free radical formation”.
Consider `N[C@@H](CCC(=O)N[C@@H](CS)C(=O)NCC(=O)O)C(=O)O` [glutathione], for which the ROS inhibition in data set [4] is 55-65%. For the same molecule, the “influence … on the ROS-Inhibition ratio” value in data set [5] is “negative gradient with increasing concentration”. Moreover, in data set [7], the free radical formation entry is on record as “able to inhibit free radical formation”.
Consider `O=C1O[C@H]([C@@H](O)CO)C(O)=C1O` [vitamin C], for which the ROS inhibition in data set [4] is reported as 20-80%. The “influence … on the ROS-Inhibition ratio” value in [5] is “negative gradient with increasing concentration”.
